What was measured:
giant foxtail = experiment: Test G preemergence test; format: in vivo, Setaria faberii; conditions: scale 0 to 100
eastern black nightshade = experiment: Test G preemergence test; format: in vivo, Solanum ptycanthum; conditions: scale 0 to 100
broadleaf signalgrass = experiment: Test G preemergence test; format: in vivo, Brachiaria platyphylla; conditions: scale 0 to 100
spring wheat = experiment: Test D preemergence test; format: in vivo, Triticum aestivum; conditions: scale 0 to 100
From the text: (§1) Seeds of plant species selected from annual bluegrass (Poa annua), blackgrass (Alopecurus myosuroides), downy bromegrass (Bromus tectorum), field violet (Viola arvensis), green foxtail (Setaria viridis), Italian ryegrass (Lolium multiflorum), littleseed canarygrass (Phalaris minor), spring wheat (Triticum aestivum), wild oat (Avena fatua), […]), winter barley (Hordeum vulgare), and winter wheat (Triticum aestivum) were planted and treated preemergence with test chemicals formulated in a non-phytotoxic solvent mixture which included a surfactant. […] A dash (-) response means no test result.

Italian ryegrass = experiment: Test D preemergence test; format: in vivo, Lolium multiflorum; conditions: scale 0 to 100
From the text: as §1

duck salad = experiment: Test B flooded paddy test; format: in vivo, Heteranthera limosa; conditions: Flood, 250 g ai/ha, 13 to 15 days; scale 0 to 100, 0 no effect, 100 complete control
From the text: (§2) At time of treatment, test pots were flooded to 3 cm above the soil surface, treated by application of test compounds directly to the paddy water, and then maintained at that water depth for the duration of the test. Treated plants and controls were maintained in a greenhouse for 13 to 15 days, after which time all species were compared to controls and visually evaluated. […] A dash (-) response means no test result.

sorghum = experiment: Test G preemergence test; format: in vivo, Sorghum vulgare; conditions: scale 0 to 100
millet foxtail = experiment: Test G preemergence test; format: in vivo, Setaria italica; conditions: scale 0 to 100
fall panicum = experiment: Test G preemergence test; format: in vivo, Panicum dichotomiflorum; conditions: scale 0 to 100
cotton = experiment: Test G preemergence test; format: in vivo, Gossypium hirsutum; conditions: scale 0 to 100
blackgrass = experiment: Test D preemergence test; format: in vivo, Alopecurus myosuroides; conditions: scale 0 to 100
From the text: as §1

windgrass = experiment: Test D preemergence test; format: in vivo, Apera spica-venti; conditions: scale 0 to 100
From the text: as §1

lambsquarters = experiment: Test G preemergence test; format: in vivo, Chenopodium album; conditions: scale 0 to 100
umbrella sedge = experiment: Test B flooded paddy test; format: in vivo, Cyperus difformis; conditions: Flood, 250 g ai/ha, 13 to 15 days; scale 0 to 100, 0 no effect, 100 complete control
From the text: as §2

annual bluegrass = experiment: Test D preemergence test; format: in vivo, Poa annua; conditions: scale 0 to 100
From the text: as §1

goosegrass = experiment: Test G preemergence test; format: in vivo, Eleusine indica; conditions: scale 0 to 100
corn = experiment: Test G preemergence test; format: in vivo, Zea mays; conditions: scale 0 to 100
soybean = experiment: Test G preemergence test; format: in vivo, Glycine max; conditions: scale 0 to 100
tall waterhemp = experiment: Test G preemergence test; format: in vivo, Amaranthus tuberculatos; conditions: scale 0 to 100
field sandbur = experiment: Test G preemergence test; format: in vivo, Cenchrus incertus; conditions: scale 0 to 100
yellow foxtail = experiment: Test G preemergence test; format: in vivo, Pennisetum glaucum; conditions: scale 0 to 100
littleseed canarygrass = experiment: Test D preemergence test; format: in vivo, Phalaris minor; conditions: scale 0 to 100
From the text: as §1

field violet = experiment: Test D preemergence test; format: in vivo, Viola arvensis; conditions: scale 0 to 100
From the text: as §1

woolly cupgrass = experiment: Test G preemergence test; format: in vivo, Eriochloa villosa; conditions: scale 0 to 100
rice = experiment: Test B flooded paddy test; format: in vivo, Oryza sativa; conditions: Flood, 250 g ai/ha, 13 to 15 days; scale 0 to 100, 0 no effect, 100 complete control
From the text: as §2

Cn1nc(C(F)(F)F)c(C[S+]([O-])c2cccc[n+]2[O-])c1OC(F)F (stereo not shown) [Compound 3]
20: Plant response rating, Wheat, Spring (spring wheat; 250 g ai/ha) | Plant response rating, Blackgrass (blackgrass; 62 g ai/ha) | Plant response rating, Bluegrass (annual bluegrass; 62 g ai/ha) | Plant response rating, Soybean (soybean; 125 g ai/ha)
40: Plant response rating, Fall Panicum (fall panicum; 62 g ai/ha) | Plant response rating, Canarygrass (littleseed canarygrass; 62 g ai/ha) | Plant response rating, Cupgrass, Woolly (woolly cupgrass; 62 g ai/ha)
65: Plant response rating, Nightshade (eastern black nightshade; 125 g ai/ha) | Plant response rating, Goosegrass (goosegrass; 31 g ai/ha)
100: Plant response rating, Foxtail, Giant (giant foxtail; 125 g ai/ha) | Plant response rating, Foxtail, Giant (giant foxtail; 250 g ai/ha) | Plant response rating, Nightshade (eastern black nightshade; 250 g ai/ha) | Plant response rating, Sorghum (sorghum; 250 g ai/ha) | Plant response rating, Foxtail, Millet (millet foxtail; 125 g ai/ha) | Plant response rating, Foxtail, Millet (millet foxtail; 250 g ai/ha) | Plant response rating, Blackgrass (blackgrass; 125 g ai/ha) | Plant response rating, Blackgrass (blackgrass; 250 g ai/ha) | Plant response rating, Windgrass (windgrass; 125 g ai/ha) | Plant response rating, Windgrass (windgrass; 250 g ai/ha) | Plant response rating, Lambsquarters (lambsquarters; 125 g ai/ha) | Plant response rating, Lambsquarters (lambsquarters; 250 g ai/ha) | Plant response rating, Umbrella Sedge (umbrella sedge) | Plant response rating, Bluegrass (annual bluegrass; 125 g ai/ha) | Plant response rating, Bluegrass (annual bluegrass; 250 g ai/ha) | Plant response rating, Goosegrass (goosegrass; 125 g ai/ha) | Plant response rating, Goosegrass (goosegrass; 250 g ai/ha) | Plant response rating, Waterhemp (tall waterhemp; 125 g ai/ha) | Plant response rating, Waterhemp (tall waterhemp; 250 g ai/ha) | Plant response rating, Foxtail, Yellow (yellow foxtail; 125 g ai/ha) | Plant response rating, Foxtail, Yellow (yellow foxtail; 250 g ai/ha) | Plant response rating, Canarygrass (littleseed canarygrass; 125 g ai/ha) | Plant response rating, Canarygrass (littleseed canarygrass; 250 g ai/ha) | Plant response rating, Field Violet (field violet; 250 g ai/ha) | Plant response rating, Cupgrass, Woolly (woolly cupgrass; 250 g ai/ha)
0: Plant response rating, Foxtail, Giant (giant foxtail; 31 g ai/ha) | Plant response rating, Nightshade (eastern black nightshade; 31 g ai/ha) | Plant response rating, Signalgrass (broadleaf signalgrass; 31 g ai/ha) | Plant response rating, Wheat, Spring (spring wheat; 31 g ai/ha) | Plant response rating, Wheat, Spring (spring wheat; 62 g ai/ha) | Plant response rating, Ryegrass, Italian (Italian ryegrass; 31 g ai/ha) | Plant response rating, Sorghum (sorghum; 31 g ai/ha) | Plant response rating, Foxtail, Millet (millet foxtail; 31 g ai/ha) | Plant response rating, Fall Panicum (fall panicum; 31 g ai/ha) | Plant response rating, Cotton (cotton; 31 g ai/ha) | Plant response rating, Cotton (cotton; 62 g ai/ha) | Plant response rating, Blackgrass (blackgrass; 31 g ai/ha) | Plant response rating, Windgrass (windgrass; 31 g ai/ha) | Plant response rating, Lambsquarters (lambsquarters; 31 g ai/ha) | Plant response rating, Lambsquarters (lambsquarters; 62 g ai/ha) | Plant response rating, Bluegrass (annual bluegrass; 31 g ai/ha) | Plant response rating, Corn (corn; 31 g ai/ha) | Plant response rating, Corn (corn; 62 g ai/ha) | Plant response rating, Soybean (soybean; 31 g ai/ha) | Plant response rating, Waterhemp (tall waterhemp; 31 g ai/ha) | Plant response rating, Waterhemp (tall waterhemp; 62 g ai/ha) | Plant response rating, Sandbur (field sandbur; 31 g ai/ha) | Plant response rating, Foxtail, Yellow (yellow foxtail; 31 g ai/ha) | Plant response rating, Canarygrass (littleseed canarygrass; 31 g ai/ha) | Plant response rating, Cupgrass, Woolly (woolly cupgrass; 31 g ai/ha)
80: Plant response rating, Foxtail, Millet (millet foxtail; 62 g ai/ha) | Plant response rating, Goosegrass (goosegrass; 62 g ai/ha)
10: Plant response rating, Sorghum (sorghum; 62 g ai/ha) | Plant response rating, Cotton (cotton; 125 g ai/ha) | Plant response rating, Corn (corn; 125 g ai/ha)
90: Plant response rating, Ducksalad (duck salad) | Plant response rating, Fall Panicum (fall panicum; 125 g ai/ha)
15: Plant response rating, Wheat, Spring (spring wheat; 125 g ai/ha) | Plant response rating, Soybean (soybean; 62 g ai/ha)
35: Plant response rating, Ryegrass, Italian (Italian ryegrass; 62 g ai/ha) | Plant response rating, Soybean (soybean; 250 g ai/ha) | Plant response rating, Sandbur (field sandbur; 62 g ai/ha)
45: Plant response rating, Signalgrass (broadleaf signalgrass; 62 g ai/ha) | Plant response rating, Ryegrass, Italian (Italian ryegrass; 125 g ai/ha)
75: Plant response rating, Foxtail, Giant (giant foxtail; 62 g ai/ha) | Plant response rating, Windgrass (windgrass; 62 g ai/ha) | Plant response rating, Foxtail, Yellow (yellow foxtail; 62 g ai/ha)
95: Plant response rating, Signalgrass (broadleaf signalgrass; 250 g ai/ha) | Plant response rating, Ryegrass, Italian (Italian ryegrass; 250 g ai/ha) | Plant response rating, Fall Panicum (fall panicum; 250 g ai/ha) | Plant response rating, Sandbur (field sandbur; 125 g ai/ha) | Plant response rating, Sandbur (field sandbur; 250 g ai/ha) | Plant response rating, Cupgrass, Woolly (woolly cupgrass; 125 g ai/ha)
85: Plant response rating, Field Violet (field violet; 125 g ai/ha)
60: Plant response rating, Nightshade (eastern black nightshade; 62 g ai/ha) | Plant response rating, Signalgrass (broadleaf signalgrass; 125 g ai/ha) | Plant response rating, Corn (corn; 250 g ai/ha) | Plant response rating, Rice, Transplanted (rice)
70: Plant response rating, Field Violet (field violet; 31 g ai/ha) | Plant response rating, Field Violet (field violet; 62 g ai/ha)
25: Plant response rating, Cotton (cotton; 250 g ai/ha)
55: Plant response rating, Sorghum (sorghum; 125 g ai/ha)

Cn1nc(C(F)(F)F)c(C[S+]([O-])c2ccc(Cl)c[n+]2[O-])c1OC(F)F (stereo not shown) [Compound 6]
100: Plant response rating, Ducksalad (duck salad) | Plant response rating, Umbrella Sedge (umbrella sedge)
60: Plant response rating, Rice, Transplanted (rice)

From US20100298141A1, “SUBSTITUTED PYRIDINE N-OXIDE HERBICIDES” (E. I. DU PONT DE NEMOURS AND COMPANY, priority 2007, published 2010)
